pIC50: −log10 of the molar value.
Target: T1, VOR complex (VAP-A, ORP3, Rab7); Rab7 binding to ORP3 (Homo sapiens, UniProt Q9H4L5)
T1 construct: gene OSBPL3; endogenous full-length proteins in HeLa detergent lysate, ORP3 immunoisolated with antibody D-12; with Ras-related protein Rab-7a; Vesicle-associated membrane protein-associated protein A
T1 sequence (Q9H4L5 1-887): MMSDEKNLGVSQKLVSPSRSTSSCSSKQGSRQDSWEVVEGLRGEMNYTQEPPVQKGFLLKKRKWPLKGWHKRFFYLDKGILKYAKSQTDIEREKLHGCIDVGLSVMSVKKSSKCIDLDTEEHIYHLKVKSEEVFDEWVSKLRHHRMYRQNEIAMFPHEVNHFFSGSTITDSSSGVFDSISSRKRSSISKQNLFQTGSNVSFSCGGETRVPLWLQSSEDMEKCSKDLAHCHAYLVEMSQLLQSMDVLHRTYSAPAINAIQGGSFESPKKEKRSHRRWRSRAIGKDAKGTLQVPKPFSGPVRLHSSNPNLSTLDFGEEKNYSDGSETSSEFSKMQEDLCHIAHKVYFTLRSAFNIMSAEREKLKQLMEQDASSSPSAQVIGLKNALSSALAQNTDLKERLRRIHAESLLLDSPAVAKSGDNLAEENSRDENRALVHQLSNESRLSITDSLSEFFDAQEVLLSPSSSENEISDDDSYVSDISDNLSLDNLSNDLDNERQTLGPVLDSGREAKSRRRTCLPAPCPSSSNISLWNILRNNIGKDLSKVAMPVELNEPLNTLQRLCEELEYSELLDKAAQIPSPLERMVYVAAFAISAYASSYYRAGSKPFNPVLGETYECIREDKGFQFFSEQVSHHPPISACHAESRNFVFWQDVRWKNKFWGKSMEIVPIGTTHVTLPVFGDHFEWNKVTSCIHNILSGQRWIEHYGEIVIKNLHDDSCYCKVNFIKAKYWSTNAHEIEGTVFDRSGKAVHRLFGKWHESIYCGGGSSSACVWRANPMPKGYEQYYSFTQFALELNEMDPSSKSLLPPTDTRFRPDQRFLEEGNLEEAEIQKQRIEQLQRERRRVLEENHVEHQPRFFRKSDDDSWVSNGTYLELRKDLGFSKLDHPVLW
T1 sequence (Q9P0L0 2-249 partner): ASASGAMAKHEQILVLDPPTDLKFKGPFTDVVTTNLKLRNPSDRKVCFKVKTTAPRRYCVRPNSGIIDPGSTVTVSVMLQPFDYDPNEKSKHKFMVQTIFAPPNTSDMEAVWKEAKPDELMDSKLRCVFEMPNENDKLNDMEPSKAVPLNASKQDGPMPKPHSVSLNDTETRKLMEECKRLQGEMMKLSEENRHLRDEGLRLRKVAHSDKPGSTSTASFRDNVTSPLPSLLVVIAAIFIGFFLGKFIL
Assay: ORP3 immunoisolation from drug-treated HeLa detergent lysate, Rab7/ORP3 immunoblot ratio, linear regression
Type: biochemical
Details: inhibition of Rab7 binding to ORP3 (VAP-A/ORP3); lysate with 1-10 μM compound, 30 min on ice; direct site on ORP3 ORD only cited from earlier work

Structure (SMILES)	pIC50
CCC(C)n1ncn(-c2ccc(N3CCN(c4ccc(OCC5COC(Cn6cncn6)(c6ccc(Cl)cc6Cl)O5)cc4)CC3)cc2)c1=O (stereo not drawn) [ICZ, cis-4[4-4-4[[2-(2-4-dichlorophenyl)-2-(1H-1,2,4,triazol-1-methyl)-1,3-dioxolan-4-yl]-1-piperazinyl]phenyl]-2,4-dihydro-2-(1-methyl-propyl)-3H-1,2,4-triazol-3-one]	5.31
CCC(C)n1ncn(-c2ccc(Cl)cc2)c1=O (centres unmarked) [PRR851]	5.32
